From patent US20060188938A1, “Compounds for inhibiting beta-amyloid production and methods of identifying the compounds” (priority 2005, published 2006) come the findings set out here.

Molecules are shown by their SMILES.

Data set [1] concerns β-amyloid production by 7W WT APP751 CHO cells. Description: Screening of NF-kB activation inhibitors, Aβ1-40 and Aβ1-42 ELISA (Example 3). The class given is cell-based, Chinese hamster. The settings on record: 24 hours (FIG. 6). The procedure:
Most of the compounds screened can be obtained as Calbiochem products from EMD Biosciences, Inc., La Jolla, Calif. R—and S-Niguldipine are available e.g., from Tocris Cookson Inc., Ellisville, Mo. CAPE and Artemisinin are available, e.g., as a Sigma product from Sigma-Aldrich Corp., St. Louis, Mo.
Each compound was dissolved in DMSO. 7W WT APP751 CHO cells overexpressing APP751 were plated into 96-well culture plates in 200 μL of culture medium. Each compound from the library was added to confluent cells to a final concentration of 500 nM, 1 μM, 5 μM, 10 μM and/or 30 μM. After 24 hours of treatment, culture medium was collected and dissolved 10-fold and 2-fold for measuring the level of Aβ1-40 and Aβ1-42, respectively. Aβ1-40 and Aβ1-42 were determined using commercially available ELISAs (Biosource, CA), following the recommendations of the manufacturer.
(In general: An ELISA detects its analyte on a solid surface through an enzyme-linked reagent.)

As for `CCOC(=O)C1=C(C)NC(C)=C(C(=O)OC)C1c1ccccc1Cl` (stereo not shown) [Example 56, 3-Ethyl 5-methyl 4-(2-chlorophenyl)-1,4-dihydro-2,6-dimethylpyridine-3,5-dicarboxylate], the melting point was in the range of 125 to 127 °C.
On the same count and under the same terms, in the case of `CCOC(=O)C1=C(C)NC(C)=C(C(=O)OCC)C1c1ccc(F)cc1` [Example 51, Diethyl 4-(4-fluorophenyl)-1,4-dihydro-2,6-dimethylpyridine-3,5-dicarboxylate] it was 150 to 151 °C; in that of `CC1=C(C(=O)OC(C)(C)C)C(c2cccc(Cl)c2Cl)C(C(=O)OC(C)(C)C)=C(C)N1` [Example 32, Di-tert-butyl 4-(2,3-dichlorophenyl)-1,4-dihydro-2,6-dimethylpyridine-3,5-dicarboxylate], 144 to 145 °C; in that of `CCOC(=O)C1=C(C)NC(C)=C(C(=O)OCC)C1c1ccc(Cl)cc1` [Example 22, Diethyl 4-(4-chlorophenyl)-1,4-dihydro-2,6-dimethylpyridine-3,5-dicarboxylate], 151 to 152 °C.
Same read-out and setting: to `CC1=C(C(=O)OC(C)(C)C)C(c2ccccc2I)C(C(=O)OC(C)(C)C)=C(C)N1` [Example 28, Di-tert-butyl 1,4-dihydro-4-(2-iodophenyl)-2.6-dimethylpyridine-3,5-dicarboxylate] belongs 184 to 185 °C; to `CCOC(=O)C1=C(C)NC(C)=C(C(=O)OCC)C1c1ccc(Br)cc1F` [Example 43, Diethyl 4-(4-bromo-2-fluorophenyl)-1,4-dihydro-2,6-dimethylpyridine-3,5-dicarboxylate], 154 to 155 °C.
Same read-out and setting: in the case of `CCOC(=O)C1=C(C)NC(C)=C(C(=O)OCC)C1c1cc(Cl)ccc1Cl` [Example 34, Diethyl 4-(2,5-dichlorophenyl)-1,4-dihydro-2,6-dimethylpyridine-3,5-dicarboxylate] it was 166.5 to 167.5 °C; in that of `CCOC(=O)C1=C(C)NC(C)=C(C(=O)OCC)C1c1c(Cl)cccc1Cl` [Example 36, Diethyl 4-(2,6-dichlorophenyl)-1,4-dihydro-2,6-dimethylpyridine-3,5-dicarboxylate], 134 to 135 °C; in that of `COC(=O)C1=C(C)NC(C)=C(C(C)=O)C1c1ccccc1Br` (stereo not shown) [Example 59, Methyl 5-acetyl-4-(2-bromophenyl)-1,4-dihydro-2,6-dimethylpyridine-3-carboxylate], 146 to 148 °C.
Turning to `COCCOC(=O)C1=C(C)NC(C)=C(C(=O)OCCOC)C1c1ccc(Br)cc1` [Example 46, Bis(2-methoxyethyl) 4-(4-bromophenyl)-1,4-dihydro-2,6-dimethylpyridine-3,5-dicarboxylate], the melting point lay within 116 to 117 °C.
On the same count and under the same terms, to `CC1=C(C(=O)OC(C)(C)C)C(c2ccc(Br)cc2)C(C(=O)OC(C)(C)C)=C(C)N1` [Example 27, Di-tert-butyl 4-(4-bromophenyl)-1,4-dihydro-2.6-dimethylpyridine-3,5-dicarboxylate] belongs 206 to 207 °C; to `CC1=C(C(=O)OC(C)(C)C)C(c2cc(Br)ccc2F)C(C(=O)OC(C)(C)C)=C(C)N1` [Example 48, Di-tert-butyl 4-(5-bromo-2-fluorophenyl)-1,4-dihydro-2,6-dimethylpyridine-3,5-dicarboxylate], 173 to 174 °C; to `CCOC(=O)C1=C(C)NC(C)=C(C(=O)OC)C1c1ccccc1Br` (stereo not shown) [Example 58, 3-Ethyl 5-methyl 4-(2-bromophenyl)-1,4-dihydro-2,6-dimethylpyridine-3,5-dicarboxylate], 134.5 to 135.5 °C.
The compound `CCOC(=O)C1=C(C)NC(C)=C(C(=O)OCC)C1c1cc(Cl)cc(Cl)c1` [Example 37, Diethyl 4-(3,5-dichlorophenyl)-1,4-dihydro-2,6-dimethylpyridine-3,5-dicarboxylate] registered a melting point of 102 to 104 °C.
In turn, `CC1=C(C(=O)OC(C)(C)C)C(c2cccc(Br)c2)C(C(=O)OC(C)(C)C)=C(C)N1` [Example 25, Di-tert-butyl 4-(3-bromophenyl)-1,4-dihydro-2,6-dimethylpyridine-3,5-dicarboxylate] yielded a melting point of 195 to 196 °C.
In turn, `CC1=C(C(=O)OC(C)(C)C)C(c2ccc(Br)cc2F)C(C(=O)OC(C)(C)C)=C(C)N1` [Example 44, Di-tert-butyl 4-(4-bromo-2-fluorophenyl)-1,4-dihydro-2,6-dimethylpyridine-3,5-dicarboxylate] registered a melting point of 187 to 188 °C.
On the same count and under the same terms, in the case of `CCOC(=O)C1=C(C)NC(C)=C(C(=O)OCC)C1c1ccccc1Cl` [Example 6, Diethyl 4-(2-chlorophenyl)-1,4-dihydro-2,6-dimethylpyridine-3,5-dicarboxylate] it was 120 to 121 °C; in that of `CC1=C(C(=O)OC(C)(C)C)C(c2ccc(F)c(Br)c2)C(C(=O)OC(C)(C)C)=C(C)N1` [Example 42, Di-tert-butyl 4-(3-bromo-4-fluorophenyl)-1,4-dihydro-2,6-dimethylpyridine-3,5-dicarboxylate], 171 to 172 °C.
On the same count and under the same terms, to `CCOC(=O)C1=C(C)NC(C)=C(C(=O)OCC)C1c1ccccc1Br` [Example 11, Diethyl 4-(2-bromophenyl)-1,4-dihydro-2,6-dimethylpyridine-3,5-dicarboxylate] belongs 144 to 145 °C; to `CCOC(=O)C1=C(C)N(Cc2ccccc2)C(C)=C(C(=O)OCC)C1c1ccc(Br)cc1` [Example 54, Diethyl 1-benzyl-4-(4-bromophenyl)-1,4-dihydro-2,6-dimethylpyridine-3,5-dicarboxylate], 168 to 169 °C; to `CC1=C(C(=O)OC(C)(C)C)C(c2ccccc2Cl)C(C(=O)OC(C)(C)C)=C(C)N1` [Example 9, Di-tert-butyl 4-(2-chlorophenyl)-1,4-dihydro-2,6-dimethylpyridine-3,5-dicarboxylate], 194 to 196 °C.
In turn, `CC1=C(C(=O)OC(C)(C)C)C(c2cccc(Cl)c2)C(C(=O)OC(C)(C)C)=C(C)N1` [Example 21, Di-tert-butyl 4-(3-chlorophenyl)-1,4-dihydro-2,6-dimethylpyridine-3,5-dicarboxylate] came in with a melting point of 189.5 to 190.5 °C.
The compound `COC(=O)C1=C(C)NC(C)=C(C(=O)OC)C1c1ccccc1Br` [Example 19, Dimethyl 4-(2-bromophenyl)-1,4-dihydro-2,6-dimethylpyridine-3,5-dicarboxylate] yielded a melting point of 164 to 165 °C.
Same read-out and setting: in the case of `CCOC(=O)C1=C(C)NC(C)=C(C(=O)OCC)C1c1cc(Br)ccc1F` [Example 47, Diethyl 4-(5-bromo-2-fluorophenyl)-1,4-dihydro-2,6-dimethylpyridine-3,5-dicarboxylate] it was 118 to 119 °C.
As to `COC(=O)C1=C(C)NC(C)=C(C(=O)OCCCN2CCC(c3ccccc3)(c3ccccc3)CC2)[C@H]1c1cccc([N+](=O)[O-])c1.Cl` [(S)-(+)-niguldipine], in data set [1] (1 μM), the “concentration of Aβ1-40 compared to controls” value was “significantly decreased”, the “concentration of Aβ1-42 compared to controls” value is recorded as “significantly decreased” and the “concentration of total β-amyloid compared to controls” value was “significantly decreased”. Also, in data set [1] (5 μM), the “concentration of Aβ1-40 compared to controls” value is recorded as “significantly decreased”, the “concentration of Aβ1-42 compared to controls” value is recorded as “significantly decreased” and the “concentration of total β-amyloid compared to controls” value is “significantly decreased”. In data set [1] (30 μM), the “concentration of Aβ1-40 compared to controls” value is “significantly decreased”, the “concentration of Aβ1-42 compared to controls” value is “significantly decreased” and the “concentration of total β-amyloid compared to controls” value is “significantly decreased”.
`C=CCOC(=O)C1=C(C)NC(C)=C(C(=O)OCC=C)C1c1ccc(Br)cc1` [Example 40, Diallyl 4-(4-bromophenyl)-1,4-dihydro-2,6-dimethylpyridine-3,5-dicarboxylate] returned a melting point of 130 to 131 °C.
For `NC(=O)Nc1sc(-c2ccc(F)cc2)cc1C(N)=O` [IKK-2 Inhibitor IV], in data set [1] (500 nM), the “concentration of Aβ1-40 compared to controls” value was “significantly decreased”, the “concentration of Aβ1-42 compared to controls” value is listed as “significantly decreased” and the “concentration of total β-amyloid compared to controls” value is given as “significantly decreased”. For the same compound, in data set [1] (5 μM), the “concentration of Aβ1-40 compared to controls” value is recorded as “significantly decreased”, the “concentration of Aβ1-42 compared to controls” value is on record as “significantly decreased” and the “concentration of total β-amyloid compared to controls” value is listed as “significantly decreased”.
Turning to `CC1=C(O)C(=O)C=C2C1=CC=C1[C@@]2(C)CC[C@@]2(C)[C@@H]3C[C@](C)(C(=O)O)CC[C@]3(C)CC[C@]12C` [celastrol], in data set [1] (500 nM), the “concentration of Aβ1-40 compared to controls” value was “significantly decreased”, the “concentration of Aβ1-42 compared to controls” value was “significantly decreased” and the “concentration of total β-amyloid compared to controls” value is recorded as “significantly decreased”. Moreover, in data set [1] (5 μM), the “concentration of Aβ1-40 compared to controls” value is listed as “significantly decreased”, the “concentration of Aβ1-42 compared to controls” value is listed as “significantly decreased” and the “concentration of total β-amyloid compared to controls” value is on record as “significantly decreased”.
Regarding `C=C1C(=O)[C@@]23[C@H](O)C[C@@H]4C(C)(C)CC[C@H](O)[C@@]4(CO)[C@@H]2CC[C@@H]1[C@H]3O` [kamebakaurin], in data set [1] (10 μM), the “concentration of Aβ1-40 compared to controls” value is recorded as “significantly decreased”, the “concentration of Aβ1-42 compared to controls” value was “significantly decreased” and the “concentration of total β-amyloid compared to controls” value is given as “significantly decreased”. In data set [1] (30 μM), the “concentration of Aβ1-40 compared to controls” value is recorded as “significantly decreased”, the “concentration of Aβ1-42 compared to controls” value is reported as “significantly decreased” and the “concentration of total β-amyloid compared to controls” value is recorded as “significantly decreased”.

Usually melting point stands for the temperature, or range, at which the solid turns liquid.
